The results in this text go back to patent publication US10550105B2 (Ribon Therapeutics Inc., priority 2018, dated 2020).

Molecules are shown by their SMILES.

Chain of PARP7 (Q7Z3E1 whole entry): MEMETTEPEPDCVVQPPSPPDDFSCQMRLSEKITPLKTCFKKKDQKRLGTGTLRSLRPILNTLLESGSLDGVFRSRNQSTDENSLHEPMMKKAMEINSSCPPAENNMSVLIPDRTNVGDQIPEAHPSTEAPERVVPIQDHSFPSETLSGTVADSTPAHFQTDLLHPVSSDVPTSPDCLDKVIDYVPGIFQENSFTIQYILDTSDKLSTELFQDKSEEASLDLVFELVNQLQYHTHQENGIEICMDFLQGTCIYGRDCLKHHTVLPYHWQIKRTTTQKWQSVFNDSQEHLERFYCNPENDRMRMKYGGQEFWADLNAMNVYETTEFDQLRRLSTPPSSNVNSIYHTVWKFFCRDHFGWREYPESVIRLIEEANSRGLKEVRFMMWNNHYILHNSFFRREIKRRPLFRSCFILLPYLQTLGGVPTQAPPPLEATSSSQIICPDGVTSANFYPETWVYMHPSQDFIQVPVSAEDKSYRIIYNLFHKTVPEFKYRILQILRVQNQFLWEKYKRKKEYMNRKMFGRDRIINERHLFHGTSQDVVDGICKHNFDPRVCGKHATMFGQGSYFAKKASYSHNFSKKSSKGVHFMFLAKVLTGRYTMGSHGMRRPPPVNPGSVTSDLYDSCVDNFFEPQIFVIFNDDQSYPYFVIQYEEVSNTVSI

This test concerns the target PARP7 (Homo sapiens (Human), UniProt Q7Z3E1). The test is described as follows: Enzymatic assay for inhibition of PARP7: TR-FRET displacement of biotinylated Probe A from the TIPARP active site. Format: binding. To be noted: Table A-1. An outline of the steps: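 Compound dose-response series were incubated with TIPARP and biotinylated Probe A, with a final 30 min step at 25 °C. TR-FRET was read at 320 nm excitation, 615/665 nm emission and 90 μs delay, using the 665/615 ratio to measure complex formation. % inhibition was fitted with a floating or fixed (1) Hill coefficient.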
(In general: TR-FRET usually uses a lanthanide donor and a delayed reading to cut background.)
`N#CCc1ccc(N2CCN(C(=O)c3cccc(OC[C@@H]4CCCN4c4cn[nH]c(=O)c4C(F)(F)F)c3)CC2)cc1` [Example 453, (S)-2-(4-(4-(3-((1-(6-Oxo-5-(trifluoromethyl)-1,6-dihydropyridazin-4-yl)pyrrolidin-2-yl)methoxy)benzoyl)piperazin-1-yl)phenyl)acetonitrile]: the IC50 (in general, the concentration that inhibits the measured activity by half) was less than 0.1 µM. In turn, `O=C(CCOC[C@@H]1CCCN1c1cn[nH]c(=O)c1C(F)(F)F)N1CCN(c2ccccn2)CC1` [Example 454, (S)-5-(2-((3-Oxo-3-(4-(pyridin-2-yl)piperazin-1-yl)propoxy)methyl)pyrrolidin-1-yl)-4-(trifluoromethyl)pyridazin-3(2H)-one] had a concentration for half-maximal inhibition (IC50) of less than 0.1 µM. The same measure for `N#Cc1ccc(N2CCN(C(=O)c3cccc(NCC4CCCN4c4cn[nH]c(=O)c4C(F)(F)F)c3)CC2)nc1` (centres unmarked) [Example 455, 6-(4-(3-(((1-(6-Oxo-5-(trifluoromethyl)-1,6-dihydropyridazin-4-yl)pyrrolidin-2-yl)methyl)amino)benzoyl)piperazin-1-yl)nicotinonitrile]: less than 0.1 µM.

The molecule `O=C(CCOC[C@@H]1CCCN1c1cn[nH]c(=O)c1C(F)(F)F)N1CCN(c2ncccn2)CC1` [Example 456, (S)-5-(2-((3-Oxo-3-(4-(pyrimidin-2-yl)piperazin-1-yl)propoxy)methyl)pyrrolidin-1-yl)-4-(trifluoromethyl)pyridazin-3(2H)-one] returned an IC50 of less than 0.1 µM. The figure for `O=C(CCOC[C@@H]1CCCN1c1cn[nH]c(=O)c1C(F)(F)F)N1CCN(c2ncc(C(F)(F)F)cn2)CC1` [Example 457, (S)-5-(2-((3-Oxo-3-(4-(5-(trifluoromethyl)pyrimidin-2-yl)piperazin-1-yl)propoxy)methyl)pyrrolidin-1-yl)-4-(trifluoromethyl)pyridazin-3(2H)-one] is less than 0.1 µM; for `O=C(CCOC[C@@H]1CCCN1c1cn[nH]c(=O)c1C(F)(F)F)N1CCN(c2ccc(C(F)(F)F)cn2)CC1` [Example 458, (S)-5-(2-((3-Oxo-3-(4-(5-(trifluoromethyl)pyridin-2-yl)piperazin-1-yl)propoxy)methyl)pyrrolidin-1-yl)-4-(trifluoromethyl)pyridazin-3(2H)-one] it is less than 0.1 µM. The figure for `C[C@H]1CCN(c2cn[nH]c(=O)c2C(F)(F)F)[C@H]1COc1cccc(C(=O)N2CCN(c3ccc(C#N)cn3)CC2)c1` [Example 459, 6-(4-(3-(((2R,3S)-3-methyl-1-(6-oxo-5-(trifluoromethyl)-1,6-dihydropyridazin-4-yl)pyrrolidin-2-yl)methoxy)benzoyl)piperazin-1-yl)nicotinonitrile] is 0.1 to 1 µM; for `C[C@@H]1CCN(c2cn[nH]c(=O)c2C(F)(F)F)[C@@H]1COc1cccc(C(=O)N2CCN(c3ccc(C#N)cn3)CC2)c1` [Example 460, 6-(4-(3-(((2S,3R)-3-methyl-1-(6-oxo-5-(trifluoromethyl)-1,6-dihydropyridazin-4-yl)pyrrolidin-2-yl)methoxy)benzoyl)piperazin-1-yl)nicotinonitrile] it is less than 0.1 µM; for `N#Cc1cnc(N2CCN(C(=O)CCOC[C@@H]3CCCN3c3cn[nH]c(=O)c3C(F)(F)F)CC2)nc1` [Example 461, (S)-2-(4-(3-((1-(6-Oxo-5-(trifluoromethyl)-1,6-dihydropyridazin-4-yl)pyrrolidin-2-yl)methoxy)propanoyl)piperazin-1-yl)pyrimidine-5-carbonitrile] it is less than 0.1 µM. The same measure for `N#Cc1ccc(N2CCN(C(=O)CCOC[C@@H]3CCCN3c3cn[nH]c(=O)c3C(F)(F)F)CC2)cc1` [Example 462, (S)-4-(4-(3-((1-(6-Oxo-5-(trifluoromethyl)-1,6-dihydropyridazin-4-yl)pyrrolidin-2-yl)methoxy)propanoyl)piperazin-1-yl)benzonitrile]: less than 0.1 µM; for `N#Cc1cccnc1N1CCN(C(=O)CCOC[C@@H]2CCCN2c2cn[nH]c(=O)c2C(F)(F)F)CC1` [Example 463, (S)-2-(4-(3-((1-(6-Oxo-5-(trifluoromethyl)-1,6-dihydropyridazin-4-yl)pyrrolidin-2-yl)methoxy)propanoyl)piperazin-1-yl)nicotinonitrile]: less than 0.1 µM.
